Assay results taken from article PMC7598995, “HT-SuMD: making molecular dynamics simulations suitable for fragment-based screening. A comparative study with NMR” (Journal of Enzyme Inhibition and Medicinal Chemistry, 2020).

Target: T1, Bcl-XL (Homo sapiens, UniProt Q07817)
T1 construct: gene BCL2L1; human Bcl-XL lacking the C-terminus domain (Δ209-233), 6His-tagged
Experiment: NMR: […] SOFAST-HMQC titration, plus STD and WaterLOGSY
Format: binding

T1 sequence (Q07817 1-208): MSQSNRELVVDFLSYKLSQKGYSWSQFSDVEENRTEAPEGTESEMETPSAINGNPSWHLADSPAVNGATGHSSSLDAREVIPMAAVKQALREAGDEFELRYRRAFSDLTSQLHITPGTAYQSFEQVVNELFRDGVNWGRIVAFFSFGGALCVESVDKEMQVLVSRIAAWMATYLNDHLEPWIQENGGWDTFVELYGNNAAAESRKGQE

Q: `Oc1ccccc1Cc1ccccc1` [compound 222, fragment 222] was tested. Which Kd did it give?
A: The Kd was 1000 ± 400 µM.
